# Like-named read-outs stand apart in the source and are kept apart here.
# Key:
# TYK2 JH2 = target: T1, TYK2 JH2 (Homo sapiens, UniProt P29597); test: TYK2 JH2 binding assay (KINOMEscan KdELECT competitive binding); conditions: TYK2 JH2 domain
# T1 construct: purchased DiscoverX (KINOMEscan KdELECT service); host or cells: E. coli BL21-derived (T7 phage display) or HEK-293
# Method in brief: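 Beads carrying a biotinylated ligand were mixed with tagged JH2 kinase and compound (11 points, 3-fold steps, 0.9% DMSO) and shaken 1 h at room temperature. After washing, kinase was released with 0.5 μM untagged ligand over 30 min and measured by qPCR to derive Kd.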
# [1] = system: JAK1/TYK2 pSTAT5 (Tyr694/699) in THP-1 cell line; test: IFNa-stimulated JAK1/TYK2 pSTAT5 (Tyr694/699) inhibition cellular assay, AlphaLISA; assay type: cell-based; conditions: Homo sapiens, THP-1 cells, AlphaLISA (Assay B)
# Method in brief: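 Compound dilutions were dispensed first, and HBSS-suspended THP-1 cells were added on top (final top concentration 10000 nM, 6-fold series). After 1 h at 37 °C, IFNa (100 ng/mL as added) was applied for 30 min. Cells were then lysed and pSTAT5 was quantified by AlphaLISA.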
# [2] = KINOMEscan KdELECT (Assay A), read-out: Biochemical TYK2_JH2_Kd
# [3] = IFNa-stimulated, read-out: Cellular THP1_IFNa-pSTATS_IC50
# [4] = DiscoverX KINOMEscan KdELECT (Assay A), read-out: Biochemical TYK2_DiscoverX_JH2_BND_Kd
# [5] = IFNa-stimulated, read-out: Cellular_THP1_IFNa-pSTATS_TYK2
# [6] = KINOMEscan KdELECT (Assay A), read-out: Biochemical TYK2_DiscoverX_JH2_BND_Kd
# [7] = IFNa-stimulated pSTAT5 (Tyr694/699), read-out: Cellular_THP1_IFNa-pSTATS_TYK2
# T1 sequence (P29597 589-875 limits assumed): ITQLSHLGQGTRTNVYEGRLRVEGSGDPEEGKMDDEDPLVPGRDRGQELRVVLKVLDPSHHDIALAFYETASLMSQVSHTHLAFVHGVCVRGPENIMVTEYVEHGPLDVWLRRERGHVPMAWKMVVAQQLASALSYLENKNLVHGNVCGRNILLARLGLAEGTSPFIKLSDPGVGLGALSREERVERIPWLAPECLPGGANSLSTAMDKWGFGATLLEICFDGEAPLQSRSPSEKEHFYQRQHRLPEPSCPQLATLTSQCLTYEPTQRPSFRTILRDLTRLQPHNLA
SMILES,"IC50 [1, 5]",Kd (TYK2 JH2; [6]),also measured
"CNc1ncc(-c2ccccc2OC)c2cc(NC(=O)C3CC3)ncc12 [Example 7, N-(5-(2-methoxyphenyl)-8-(methylamino)-2,7-naphthyridin-3-yl)cyclopropanecarboxamide]",,,"Kd (TYK2 JH2; [2]): 100 to 1000 nM; IC50 [1, 3]: > 500 nM"
"CNc1ncc(-c2nc3ccc(OC)cc3o2)c2cc(NC(=O)C3CC3)ncc12 [Example 203, N-(5-(6-methoxybenzo[d]oxazol-2-yl)-8-(methylamino)-2,7-naphthyridin-3-yl)cyclopropanecarboxamide]",≤ 500 nM,,Kd (TYK2 JH2; [4]): ≤ 100 nM
"CNc1ncc(-c2ccn(CCc3ncn(C)n3)n2)c2cc(NC(=O)C3CC3)ncc12 [Example 835A, N-(5-(1-(2-(1-methyl-1H-1,2,4-triazol-3-yl)ethyl)-1H-pyrazol-3-yl)-8-(methylamino)-2,7-naphthyridin-3-yl)cyclopropanecarboxamide]",> 500 nM,≤ 100 nM,
"CNc1ncc(-c2nc3cc(OCC4CCC4)ccc3o2)c2cc(NC(=O)C3CC3)ncc12 [Example 337, N-(5-(5-(cyclobutylmethoxy)benzo[d]oxazol-2-yl)-8-(methylamino)-2,7-naphthyridin-3-yl)cyclopropanecarboxamide]",> 500 nM,,Kd (TYK2 JH2; [4]): ≤ 100 nM
"CNc1ncc(-c2nccs2)c2cc(NC(=O)C3CC3)ncc12 [Example 63, N-(8-(methylamino)-5-(thiazol-2-yl)-2,7-naphthyridin-3-yl)cyclopropanecarboxamide]",,,"Kd (TYK2 JH2; [2]): ≤ 100 nM; IC50 [1, 3]: > 500 nM"
"CNc1ncc(-c2nc3cc(N4CCO[C@@H](C)C4)ccc3o2)c2cc(NC(=O)[C@@H]3C[C@@H]3F)ncc12 [Example 407, (1S,2S)-2-fluoro-N-(8-(methylamino)-5-(5-((S)-2-methylmorpholino)benzo[d]oxazol-2-yl)-2,7-naphthyridin-3-yl)cyclopropane-1-carboxamide]",≤ 500 nM,,Kd (TYK2 JH2; [4]): ≤ 100 nM
"CNc1ncc(-c2nc3cc(N4CC5CC(CN(C(C)=O)C5)C4)ccc3o2)c2cc(NC(=O)C3CC3)ncc12 [Example 326, N-(5-(5-(7-acetyl-3,7-diazabicyclo[3.3.1]nonan-3-yl)benzo[d]oxazol-2-yl)-8-(methylamino)-2,7-naphthyridin-3-yl)cyclopropanecarboxamide]",≤ 500 nM,,Kd (TYK2 JH2; [4]): ≤ 100 nM
"CNc1ncc(-c2nc3cc(N4CC(O)C4)ccc3o2)c2cc(NC(=O)C3CC3)ncc12 [Example 283, N-(5-(5-(3-hydroxyazetidin-1-yl)benzo[d]oxazol-2-y1)-8-(methylamino)-2,7-naphthyridin-3-yl)cyclopropanecarboxamide]",≤ 500 nM,,Kd (TYK2 JH2; [4]): ≤ 100 nM
"CNc1ncc(-c2nc3cc(N4CCO[C@@H](C)C4)ccc3o2)c2cc(NC(=O)[C@@H]3C[C@@H]3C(F)F)ncc12 (single isomer, unassigned) [Example 415]",≤ 500 nM,,Kd (TYK2 JH2; [4]): ≤ 100 nM
"CNc1ncc(C#Cc2cn(C)c(C)n2)c2cc(NC(=O)[C@H]3C[C@H]3C)ncc12 [Example 1010, (1S,2R)-N-(5-((1,2-dimethyl-1H-imidazol-4-y)ethynyl)-8-(methylamino)-2,7-naphthyridin-3-yl)-2-methylcyclopropane-1-carboxamide]",,≤ 100 nM,"IC50 [1, 7]: ≤ 500 nM"
CNc1ncc(-c2nc3ccc(C4=CCOCC4)cn3n2)c2cc(NC(=O)C3CC3)ncc12 [Example 1034],,≤ 100 nM,"IC50 [1, 7]: ≤ 500 nM"
"CNc1ncc(-c2cccc(S(C)(=O)=O)c2)c2cc(NC(=O)C3CC3)ncc12 [Example 29, N-(8-(methylamino)-5-(3-(methylsulfonyl)phenyl)-2,7-naphthyridin-3-yl)cyclopropanecarboxamide]",,,"Kd (TYK2 JH2; [2]): ≤ 100 nM; IC50 [1, 3]: > 500 nM"
CNc1ncc(-c2cn3cc(N4CCO[C@H](C)C4)ccc3n2)c2cc(NC(=O)C3CC3)ncc12 [Example 1051],,≤ 100 nM,"IC50 [1, 7]: ≤ 500 nM"
"CC[C@H]1CN(c2ccc3nc(-c4cnc(NC)c5cnc(NC(=O)[C@H]6C[C@H]6C)cc45)nn3c2)CCO1 (single isomer, unassigned) [Example 1079]",,≤ 100 nM,"IC50 [1, 7]: ≤ 500 nM"

# Further lines, with some results ahead:
"IC50 [1, 5]",Kd (TYK2 JH2; [6]),SMILES,also measured
≤ 500 nM,≤ 100 nM,"CNc1ncc(C#Cc2ccc3c(c2)OC[C@@H](COC)O3)c2cc(NC(=O)C3CC3)ncc12 (single isomer, unassigned) [Example 699]",
≤ 500 nM,≤ 100 nM,"CNc1ncc(C#Cc2ccc3nc(CC(F)(F)F)n(C)c3c2)c2cc(NC(=O)C3CC3)ncc12 [Example 774, N-(5-((1-methyl-2-(2,2,2-trifluoroethyl)-1H-benzo[d]imidazol-6-yl)ethynyl)-8-(methylamino)-2,7-naphthyridin-3-yl)cyclopropanecarboxamide]",
≤ 500 nM,≤ 100 nM,"CNc1ncc(C#Cc2ccc(-n3c(=O)ccn3C)cc2)c2cc(NC(=O)C3CC3)ncc12 [Example 962, N-[8-(methylamino)-5-[2-[4-(2-methyl-5-oxo-pyrazol-1-yl)phenyl]ethynyl]-2,7-naphthyridin-3-yl]cyclopropanecarboxamide]",
≤ 500 nM,≤ 100 nM,"CNc1ncc(C#Cc2ccc(F)cn2)c2cc(NC(=O)C3CC3)ncc12 [Example 980, N-[5-[2-(5-fluoro-2-pyridyl)ethynyl]-8-(methylamino)-2,7-naphthyridin-3-yl]cyclopropanecarboxamide]",
≤ 500 nM,≤ 100 nM,"[2H]C([2H])([2H])n1cc(C#Cc2cnc(NC)c3cnc(NC(=O)C4CC4)cc23)nc1C [Example 898, N-(5-((2-methyl-1-(methyl-d3)-1H-imidazol-4-yl)ethynyl)-8-(methylamino)-2,7-naphthyridin-3-yl)cyclopropanecarboxamide]",
≤ 500 nM,≤ 100 nM,"CNc1ncc(C#Cc2ccc(OC3CN(C(C)=O)C3)cc2)c2cc(NC(=O)C3CC3)ncc12 [Example 705, N-(5-((4-((1-acetylazetidin-3-yl)oxy)phenyl)ethynyl)-8-(methylamino)-2,7-naphthyridin-3-yl)cyclopropanecarboxamide]",
≤ 500 nM,≤ 100 nM,"CNc1ncc(C#Cc2cccc(O)c2)c2cc(NC(=O)C3CC3)ncc12 [Example 593, N-(5-((3-hydroxyphenyl)ethynyl)-8-(methylamino)-2,7-naphthyridin-3-yl)cyclopropanecarboxamide]",
≤ 500 nM,≤ 100 nM,"CNc1ncc(C#Cc2ccncn2)c2cc(NC(=O)C3CC3)ncc12 [Example 599, N-(8-(methylamino)-5-(pyrimidin-4-ylethynyl)-2,7-naphthyridin-3-yl)cyclopropanecarboxamide]",
≤ 500 nM,≤ 100 nM,"CNc1ncc(C#Cc2cn(C)cn2)c2cc(NC(=O)C3CC3)ncc12 [Example 990, N-[8-(methylamino)-5-[2-(1-methylimidazol-4-yl)ethynyl]-2,7-naphthyridin-3-yl]cyclopropanecarboxamide]",
≤ 500 nM,≤ 100 nM,"CNc1ncc(C#Cc2ccc(C)cn2)c2cc(NC(=O)C3CC3)ncc12 [Example 659, N-(8-(methylamino)-5-((5-methylpyridin-2-yl)ethynyl)-2,7-naphthyridin-3-yl)cyclopropanecarboxamide]",
≤ 500 nM,≤ 100 nM,"CNc1ncc(C#Cc2ccc(CN3CCOCC3)cn2)c2cc(NC(=O)C3CC3)ncc12 [Example 728, N-(8-(methylamino)-5-((5-(morpholinomethyl)pyridin-2-yl)ethynyl)-2,7-naphthyridin-3-yl)cyclopropanecarboxamide]",
